Read-outs that look alike come from different tables or passages of the source.
Columns and labels:
[1] = Distribution of 99mTc-Sn-AEDP and 85Sr in rabbits, carrier effect of AEDP (Example 4); type: in vivo, rabbit; settings: 2 Hrs.
Experimental: Adult New Zealand albino rabbits having an average weight of 3.8 kg were utilized. Strontium-85 was employed as a standard for comparison. […] Each dosage is contained in a volume of 1 ml.
The animals were sacrificed serially from 1 to 24 hours after injection and the activities in major organs were determined by counting multiple samples from each organ in a scintillation well counter (the technetium-99m counts were corrected for the Compton contributions from the strontium-85 activity in the technetium-99m energy window). Multiple samples were counted from the tibia, femur, spine and pelvic bones; the total activity in the skeleton was estimated by assuming the whole skeleton consisted of equal proportions by weight of tibia, spine, femur and pelvis and that the skeletal mass was 10% of the body weight. The red marrow was sampled from the femur and the total marrow was assumed to be 2.2% of the total body weight. Similarly, blood volume was assumed to be 7% and the skeletal muscle 43% of the body weight. The whole liver and both kidneys were weighed and multiple samples from each were counted to measure the total activity in each organ.
In another series of experiments carried out as described in Example 2, the distribution of technetium 99m from its 99m-technetium-tin-methylene diphosphonate complex was determined in albino rabbits, again in comparison with strontium-85.
The distribution of technetium 99m from its 99m technetium-tin-1-amino-ethane-1,1-diphosphonate complex was determined as in Example 3 and compared with the distribution of strontium-85.

[2] = rabbits, 2 Hrs.
[3] = physical; cited from earlier work
[4] = rabbits i.v., ~1 mg/kg EHDP
[5] = rabbits, 2 Hrs.; remark: listed apart in the source

**Q.** What does the source list for `[85Sr+2].[Cl-].[Cl-]` [^85 Sr, 85Sr chloride, reference compound]?
**A.** Blood, % Dose in Whole Organ ([1]; AEDP 0.05 mg/kg): 2.50 % Dose; Liver, % Dose in Whole Organ ([1]; AEDP 0.5 mg/kg): 0.720 % Dose; Kidneys, % Dose in Whole Organ ([2]; EHDP 0.01 mg/kg): 0.43 % Dose; Liver, % Dose in Whole Organ ([2]; EHDP 0.01 mg/kg): 0.74 % Dose; Marrow, % Dose in Whole Organ ([2]; EHDP 0.01 mg/kg): 0.42 % Dose; One Tibia, % Dose in Whole Organ ([2]; EHDP 0.01 mg/kg): 2.60 % Dose; Kidneys, % Dose in Whole Organ ([2]; EHDP 0.05 mg/kg): 0.46 % Dose; Liver, % Dose in Whole Organ ([2]; EHDP 0.05 mg/kg): 0.77 % Dose; Marrow, % Dose in Whole Organ ([2]; EHDP 0.05 mg/kg): 0.61 % Dose; Blood, % Dose in Whole Organ ([2]; EHDP 0.1 mg/kg): 3.10 % Dose; Kidneys, % Dose in Whole Organ ([2]; EHDP 0.1 mg/kg): 0.30 % Dose; Liver, % Dose in Whole Organ ([2]; EHDP 0.1 mg/kg): 0.64 % Dose; Marrow, % Dose in Whole Organ ([2]; EHDP 0.1 mg/kg): 0.43 % Dose; Muscle, % Dose in Whole Organ ([2]; EHDP 0.1 mg/kg): 5.0 % Dose; Kidneys, % Dose in Whole Organ ([2]; EHDP 0.5 mg/kg): 0.48 % Dose; Liver, % Dose in Whole Organ ([2]; EHDP 0.5 mg/kg): 0.76 % Dose; Marrow, % Dose in Whole Organ ([2]; EHDP 0.5 mg/kg): 0.34 % Dose; Urine, % Dose ([2]; EHDP 0.5 mg/kg): 19.67 % Dose; half-life (radionuclide) [3]: 65 days; Blood, % dose/1% body weight ([4]; 1 Hr.): 1.70 % dose/1% body weight; Bone(Avg), % dose in whole organ ([4]; 1 Hr.): 56.0 % dose; Bone(Avg), % dose/1% body weight ([4]; 1 Hr.): 5.60 % dose/1% body weight; Femur, % dose/1% body weight ([4]; 1 Hr.): 4.90 % dose/1% body weight; Kidneys, % Dose in Whole Organ ([4]; 1 Hr.): 0.80 % dose; Kidneys, % dose/1% body weight ([4]; 1 Hr.): 1.75 % dose/1% body weight; Liver, % dose/1% body weight ([4]; 1 Hr.): 0.59 % dose/1% body weight; Marrow, % Dose in Whole Organ ([4]; 1 Hr.): 0.91 % dose; Marrow, % dose/1% body weight ([4]; 1 Hr.): 0.41 % dose/1% body weight; Muscle, % dose/1% body weight ([4]; 1 Hr.): 0.31 % dose/1% body weight; Pelvis, % dose/1% body weight ([4]; 1 Hr.): 7.07 % dose/1% body weight; Spine, % dose/1% body weight ([4]; 1 Hr.): 7.03 % dose/1% body weight; Tibia, % dose/1% body weight ([4]; 1 Hr.): 3.62 % dose/1% body weight; Blood, % dose/1% body weight ([4]; 2 Hrs): 1.01 % dose/1% body weight; Bone(Avg), % dose/1% body weight ([4]; 2 Hrs): 6.44 % dose/1% body weight; Femur, % dose/1% body weight ([4]; 2 Hrs): 5.74 % dose/1% body weight; Kidneys, % Dose in Whole Organ ([4]; 2 Hrs): 0.64 % dose; Kidneys, % dose/1% body weight ([4]; 2 Hrs): 1.40 % dose/1% body weight; Liver, % dose/1% body weight ([4]; 2 Hrs): 0.43 % dose/1% body weight; Marrow, % Dose in Whole Organ ([4]; 2 Hrs): 0.76 % dose; Marrow, % dose/1% body weight ([4]; 2 Hrs): 0.34 % dose/1% body weight; Muscle, % Dose in Whole Organ ([4]; 2 Hrs): 8.8 % dose; Muscle, % dose/1% body weight ([4]; 2 Hrs): 0.21 % dose/1% body weight; Pelvis, % dose/1% body weight ([4]; 2 Hrs): 7.70 % dose/1% body weight; Spine, % dose/1% body weight ([4]; 2 Hrs): 7.59 % dose/1% body weight; Tibia, % dose/1% body weight ([4]; 2 Hrs): 4.73 % dose/1% body weight; Urine, % Dose ([4]; 2 Hrs): 18.0 % dose; Blood, % dose/1% body weight ([4]; 4 Hrs): 0.55 % dose/1% body weight; Bone(Avg), % dose/1% body weight ([4]; 4 Hrs): 6.81 % dose/1% body weight; Femur, % dose/1% body weight ([4]; 4 Hrs): 6.17 % dose/1% body weight; Kidneys, % Dose in Whole Organ ([4]; 4 Hrs): 0.34 % dose; Kidneys, % dose/1% body weight ([4]; 4 Hrs): 0.71 % dose/1% body weight; Liver, % dose/1% body weight ([4]; 4 Hrs): 0.26 % dose/1% body weight; Marrow, % Dose in Whole Organ ([4]; 4 Hrs): 0.50 % dose; Marrow, % dose/1% body weight ([4]; 4 Hrs): 0.23 % dose/1% body weight; Muscle, % dose/1% body weight ([4]; 4 Hrs): 0.15 % dose/1% body weight; Pelvis, % dose/1% body weight ([4]; 4 Hrs): 8.02 % dose/1% body weight; Spine, % dose/1% body weight ([4]; 4 Hrs): 7.82 % dose/1% body weight; Tibia, % dose/1% body weight ([4]; 4 Hrs): 5.13 % dose/1% body weight; Blood, % Dose in Whole Organ ([4]; 24 Hrs): 0.29 % dose; Blood, % dose/1% body weight ([4]; 24 Hrs): 0.04 % dose/1% body weight; Bone(Avg), % dose/1% body weight ([4]; 24 Hrs): 5.21 % dose/1% body weight; Femur, % dose/1% body weight ([4]; 24 Hrs): 4.83 % dose/1% body weight; Kidneys, % Dose in Whole Organ ([4]; 24 Hrs): 0.03 % dose; Kidneys, % dose/1% body weight ([4]; 24 Hrs): 0.06 % dose/1% body weight; Liver, % dose/1% body weight ([4]; 24 Hrs): 0.02 % dose/1% body weight; Marrow, % Dose in Whole Organ ([4]; 24 Hrs): 0.10 % dose; Marrow, % dose/1% body weight ([4]; 24 Hrs): 0.05 % dose/1% body weight; Muscle, % Dose in Whole Organ ([4]; 24 Hrs): 1.00 % dose; Pelvis, % dose/1% body weight ([4]; 24 Hrs): 5.26 % dose/1% body weight; Spine, % dose/1% body weight ([4]; 24 Hrs): 6.47 % dose/1% body weight; Tibia, % dose/1% body weight ([4]; 24 Hrs): 4.27 % dose/1% body weight; Ave Bone, % Dose/1% body weight ([5]; MDP 0.01 mg/kg): 11.85 % Dose/1% body weight; Blood, % dose/1% body weight ([5]; MDP 0.01 mg/kg): 0.47 % Dose/1% body weight; Femur, % dose/1% body weight ([5]; MDP 0.01 mg/kg): 13.93 % Dose/1% body weight; Kidneys, % Dose in Whole Organ ([5]; MDP 0.01 mg/kg): 0.34 % Dose; Kidneys, % dose/1% body weight ([5]; MDP 0.01 mg/kg): 0.54 % Dose/1% body weight; Liver, % Dose in Whole Organ ([5]; MDP 0.01 mg/kg): 0.65 % Dose; Liver, % dose/1% body weight ([5]; MDP 0.01 mg/kg): 0.16 % Dose/1% body weight; Marrow, % Dose in Whole Organ ([5]; MDP 0.01 mg/kg): 0.53 % Dose; Marrow, % dose/1% body weight ([5]; MDP 0.01 mg/kg): 0.24 % Dose/1% body weight; Muscle, % dose/1% body weight ([5]; MDP 0.01 mg/kg): 0.13 % Dose/1% body weight; Pelvis, % dose/1% body weight ([5]; MDP 0.01 mg/kg): 13.55 % Dose/1% body weight; Spine, % dose/1% body weight ([5]; MDP 0.01 mg/kg): 12.78 % Dose/1% body weight; Tibia, % dose/1% body weight ([5]; MDP 0.01 mg/kg): 7.14 % Dose/1% body weight; Ave Bone, % Dose/1% body weight ([5]; MDP 0.05 mg/kg): 7.29 % Dose/1% body weight; Blood, % dose/1% body weight ([5]; MDP 0.05 mg/kg): 0.52 % Dose/1% body weight; Femur, % dose/1% body weight ([5]; MDP 0.05 mg/kg): 9.10 % Dose/1% body weight; Kidneys, % Dose in Whole Organ ([5]; MDP 0.05 mg/kg): 0.46 % Dose; Kidneys, % dose/1% body weight ([5]; MDP 0.05 mg/kg): 0.9 % Dose/1% body weight; Liver, % Dose in Whole Organ ([5]; MDP 0.05 mg/kg): 0.71 % Dose; Liver, % dose/1% body weight ([5]; MDP 0.05 mg/kg): 0.22 % Dose/1% body weight; Marrow, % Dose in Whole Organ ([5]; MDP 0.05 mg/kg): 0.53 % Dose; Marrow, % dose/1% body weight ([5]; MDP 0.05 mg/kg): 0.24 % Dose/1% body weight; Muscle, % dose/1% body weight ([5]; MDP 0.05 mg/kg): 0.14 % Dose/1% body weight; Pelvis, % dose/1% body weight ([5]; MDP 0.05 mg/kg): 8.33 % Dose/1% body weight; Spine, % dose/1% body weight ([5]; MDP 0.05 mg/kg): 6.75 % Dose/1% body weight; Tibia, % dose/1% body weight ([5]; MDP 0.05 mg/kg): 4.94 % Dose/1% body weight; Ave Bone, % Dose/1% body weight ([5]; MDP 0.1 mg/kg): 9.17 % Dose/1% body weight; Blood, % dose/1% body weight ([5]; MDP 0.1 mg/kg): 0.56 % Dose/1% body weight; Femur, % dose/1% body weight ([5]; MDP 0.1 mg/kg): 10.0 % Dose/1% body weight; Kidneys, % Dose in Whole Organ ([5]; MDP 0.1 mg/kg): 0.66 % Dose; Kidneys, % dose/1% body weight ([5]; MDP 0.1 mg/kg): 1.00 % Dose/1% body weight; Liver, % dose/1% body weight ([5]; MDP 0.1 mg/kg): 0.30 % Dose/1% body weight; Marrow, % Dose in Whole Organ ([5]; MDP 0.1 mg/kg): 0.57 % Dose; Marrow, % dose/1% body weight ([5]; MDP 0.1 mg/kg): 0.26 % Dose/1% body weight; Muscle, % dose/1% body weight ([5]; MDP 0.1 mg/kg): 0.22 % Dose/1% body weight; One femur, % dose in whole organ ([5]; MDP 0.1 mg/kg): 2.80 % Dose; Pelvis, % dose/1% body weight ([5]; MDP 0.1 mg/kg): 12.2 % Dose/1% body weight; Spine, % dose/1% body weight ([5]; MDP 0.1 mg/kg): 8.45 % Dose/1% body weight; Tibia, % dose/1% body weight ([5]; MDP 0.1 mg/kg): 6.05 % Dose/1% body weight; Ave Bone, % Dose/1% body weight ([5]; MDP 0.5 mg/kg): 8.77 % Dose/1% body weight; Blood, % dose/1% body weight ([5]; MDP 0.5 mg/kg): 0.45 % Dose/1% body weight; Femur, % dose/1% body weight ([5]; MDP 0.5 mg/kg): 11.32 % Dose/1% body weight; Kidneys, % Dose in Whole Organ ([5]; MDP 0.5 mg/kg): 0.45 % Dose; Kidneys, % dose/1% body weight ([5]; MDP 0.5 mg/kg): 0.69 % Dose/1% body weight; Liver, % Dose in Whole Organ ([5]; MDP 0.5 mg/kg): 0.69 % Dose; Liver, % dose/1% body weight ([5]; MDP 0.5 mg/kg): 0.23 % Dose/1% body weight; Marrow, % Dose in Whole Organ ([5]; MDP 0.5 mg/kg): 0.67 % Dose; Marrow, % dose/1% body weight ([5]; MDP 0.5 mg/kg): 0.30 % Dose/1% body weight; Muscle, % dose/1% body weight ([5]; MDP 0.5 mg/kg): 0.13 % Dose/1% body weight; Pelvis, % dose/1% body weight ([5]; MDP 0.5 mg/kg): 8.68 % Dose/1% body weight; Spine, % dose/1% body weight ([5]; MDP 0.5 mg/kg): 8.92 % Dose/1% body weight; Tibia, % dose/1% body weight ([5]; MDP 0.5 mg/kg): 6.16 % Dose/1% body weight

— US4115541A (priority 1975, dated 1978)
